Results from PMC12648864 (Biology of Sex Differences, 2025).
Where two headings read alike, the source gives them in different places.

Assays:
[1] = design: method as in PMID 38276513; settings: following gonadectomy; cited from earlier work
[2] = cited from earlier work
in vivo = settings: for AUC(0-t) / AUC(0-inf) / Cmax / Tmax / half-life: Sprague-Dawley, rat, plasma, po, 0.59 mg/kg
Source text: In detail, 6 intact 8-week-old male and female Sprague-Dawley (SD) rats, as well as 6 intact 5-week-old male and female SD rats were purchased from Changyang Xishan Breeding Farm (Beijing Changyang Xishan Breeding Farm, China). All rats were provided standard chow and freely-available drinking water. They were acclimatized for 1 week and fasted overnight before drug administration. The rats were divided into intact and GDX groups, with 6 males and 6 females in each group. In GDX group, testes were surgically removed from male rat at 5 weeks of age, while ovaries were excised from female rat. Following surgery, GDX rats were maintained for an additional […] before testing. All animals, both intact and GDX, were tested at 8 weeks of age.
Blood was collected from orbital vein into a centrifuge tube containing sodium heparin at following time points: 5, 10, 15, 30, and 45 min, as well as 1, 1.5, 2, 4, 6, 8, 12, 24, and 48 h. The collected blood was shaken well and centrifuged at 1500 g for 10 min to separate plasma, then stored at −20 ℃ until use. All experimental procedures were reviewed and approved by the Ethical Committee for Use of Laboratory Animals of the Shanxi Medical University (SYDL2025013).
In detail, 180 µL of plasma was pipetted into a tube, followed by the addition of 20 µL of internal standard (100 ng/mL ephedrine) and the mixture was vortexed for 5 s. Next, 1 mL of acetonitrile precipitation protein was added to this mixture, which was vortexed again for 20 s. Finally, the mixture was centrifuged at 13,000 g for 10 min and the supernatant was transferred to a clean tube. This supernatant was evaporated to dryness under a stream of nitrogen at 35 ℃, then reconstituted in 200 µL of a compound solution consisting of methanol and […] ammonium formate (containing 0.1% formic acid) in a 40:60 (v/v) ratio. The reconstituted supernatant was stored at −80 ℃ until use. Subsequently, the supernatant was passed through a 0.22 μm organic filter before analysis using 1260–6470 HPLC-tandem mass spectrometry (MS/MS).
The mobile phase consisted of A: water + […] ammonium formate + 0.1% formic acid, and B: methanol. The gradient elution program was as follows: 0–1 min, 20% B; 1–6.5 min, 20%−80% B; 6.5–7.5 min, 80% B; 7.5–8.5 min, 80%−20% B; 8.5–12 min, 20% B.
MS conditions: Detection was carried out using an Agilent Jet Stream electrospray ionization source in positive ion mode, operating in multiple reaction monitoring mode. The ion source temperature was 300 ℃, and the nebulizer temperature was 305 ℃. The gas flow rate was maintained at 11.0 L/min, with the capillary voltage of 4000 V.

[3] = design: method as in PMID 27169283; settings: ovariectomized rat, plasma; cited from earlier work
[4] = female, GDX female rats, oral 0.59 mg/kg
[5] = female, intact female rats, oral 0.59 mg/kg
[6] = male, GDX male rats, oral 0.59 mg/kg
[7] = male, intact male rats, oral 0.59 mg/kg

In the case of `NCCCC(=O)O` [γ-aminobutyric acid], the “area under the curve, testosterone-treated male rats versus female rats with similar treatment” value [1] is given as “higher” and the “renal clearance, testosterone-treated male rats versus female rats with similar treatment” value [1] is given as “significantly lower”.
For `COc1c([C@H]2[C@H](C(=O)Nc3ccnc(C(N)=O)c3)O[C@@](C)(C(F)(F)F)[C@H]2C)ccc(F)c1F` [VX-548], the AUC ([2]; female rats) is listed as 1505.8 ± 47.3 ng·h/mL, the clearance rate ([2]; female rats) is listed as 12.5 ± 0.8 mL/min/kg and the AUC ([2]; male rats) is listed as 253.8 ± 6.3 ng·h/mL. For the same compound, the clearance rate ([2]; male rats) was 65.1 ± 1.7 mL/min/kg.
For `O=C1C[C@@H]2OCC=C3CN4CC[C@]56c7ccccc7N1[C@H]5[C@H]2[C@H]3C[C@H]46` [strychnine, Strychnine nitrate], the “delay of time to peak concentration, female later than male rats” value (in vivo; GDX group, oral 0.59 mg/kg) was 0.6 h, the “peak of plasma concentration in female rats relative to male rats” value (in vivo; GDX group, oral 0.59 mg/kg) was 3.70 times and the AUC(0-t) (in vivo; [4]) was 489 ± 40.6 ng·h/mL. The AUC(0-t) (in vivo; [5]) was 409 ± 58.4 ng·h/mL, the AUC(0-inf) (in vivo; [4]) was 501 ± 43.5 ng·h/mL and the AUC(0-inf) (in vivo; [5]) was 403 ± 57.7 ng·h/mL. The Cmax (in vivo; [4]) was 48.1 ± 4.06 ng/mL, the Cmax (in vivo; [5]) was 116 ± 2.7 ng/mL and the Tmax (in vivo; female) was 0.63 ± 0.14 h. The Tmax (in vivo; [4]) was 1.6 ± 0.22 h, the half-life (in vivo; female, t1/2, GDX female rats, oral 0.59 mg/kg) was 9.06 ± 1.82 h and the half-life (in vivo; female, t1/2, intact female rats, oral 0.59 mg/kg) was 5.7 ± 2.6 h. The “delay of time to peak concentration, female later than male rats” value (in vivo; intact group, oral 0.59 mg/kg) was 0.05 h, the “peak of plasma concentration in female rats relative to male rats” value (in vivo; intact group, oral 0.59 mg/kg) was 3.49 times and the AUC(0-t) (in vivo; [6]) was 152 ± 10.4 ng·h/mL. It also gave an AUC(0-t) (in vivo; [7]) of 96.8 ± 24.9 ng·h/mL, an AUC(0-inf) (in vivo; [6]) of 153 ± 10.3 ng·h/mL and an AUC(0-inf) (in vivo; [7]) of 97 ± 24.7 ng·h/mL. For the same compound, the Cmax (in vivo; [6]) was 13 ± 0.6 ng/mL, the Cmax (in vivo; [7]) was 33.4 ± 2.01 ng/mL and the Tmax (in vivo; male) was 0.58 ± 0.13 h. The Tmax (in vivo; [6]) was 1 h, the half-life (in vivo; male, t1/2, GDX male rats, oral 0.59 mg/kg) was 7.68 ± 0.94 h and the half-life (in vivo; male, t1/2, intact male rats, oral 0.59 mg/kg) was 3.84 ± 1.48 h.
For `C[C@H]1O[C@@H](O[C@H]2[C@@H](O)C[C@H](O[C@H]3[C@@H](O)C[C@H](O[C@H]4CC[C@@]5(C)[C@H](CC[C@@H]6[C@@H]5C[C@@H](O)[C@]5(C)[C@@H](C7=CC(=O)OC7)CC[C@]65O)C4)O[C@@H]3C)O[C@@H]2C)C[C@H](O)[C@@H]1O` [digoxin], the “peak digoxin concentration after ovariectomy” value [3] is listed as “significantly lower”.
